Results published in ChEMBL document CHEMBL4402511, “Development of covalent antagonists for β1- and β2-adrenergic receptors” (Bioorg Med Chem, 2019).

Experiments:
[1] = biological target: Beta-2 adrenergic receptor (Homo sapiens, UniProt P07550); test: Displacement of [3H]CGP12177 from human beta2 adrenoceptor expressed in CHO cell membranes
[2] = biological target: Beta-1 adrenergic receptor (Mus musculus, UniProt P34971); test: Displacement of [3H]CGP12177 from mouse beta1 adrenoceptor expressed in HEK293T cell membranes
Beta-1 adrenergic receptor, sequence (P34971 whole entry): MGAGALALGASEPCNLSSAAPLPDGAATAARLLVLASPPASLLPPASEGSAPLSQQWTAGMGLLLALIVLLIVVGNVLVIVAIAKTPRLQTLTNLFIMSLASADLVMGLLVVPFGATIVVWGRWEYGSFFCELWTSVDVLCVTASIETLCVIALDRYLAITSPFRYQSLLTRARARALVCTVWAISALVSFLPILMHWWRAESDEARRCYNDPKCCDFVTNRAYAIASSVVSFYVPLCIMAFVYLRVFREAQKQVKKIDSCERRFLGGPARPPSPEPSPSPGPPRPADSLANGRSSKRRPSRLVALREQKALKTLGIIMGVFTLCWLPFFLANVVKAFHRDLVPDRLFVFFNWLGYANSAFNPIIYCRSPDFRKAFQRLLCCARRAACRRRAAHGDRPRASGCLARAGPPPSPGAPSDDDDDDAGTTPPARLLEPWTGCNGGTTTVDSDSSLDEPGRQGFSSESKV

[3] = (§1) Displacement of [3H]CGP12177 from human beta2 adrenoceptor H2.64C mutant expressed in HEK293T cell membranes
[4] = Selectivity index, ratio of Ki for displacement of [3H]CGP12177 from human beta2 adrenoceptor expressed in CHO cell membranes to Ki for displacement of [3H]CGP12177 from mouse beta1 adrenoceptor expressed in HEK293T cell membranes
[5] = species on record: Homo sapiens; test: Covalent binding affinity to human beta2 adrenoceptor H2.64C mutant expressed in HEK293T cell membranes assessed as covalent blockage of binding site at 50 nM measured after 30 mins by [3H]CGP12177 binding based radioligand depletion assay relative to control
[6] = species on record: Homo sapiens; test: Covalent binding affinity to human beta2 adrenoceptor H2.64C mutant expressed in HEK293T cell membranes assessed as covalent blockage of binding site at 50 nM measured after 120 mins by [3H]CGP12177 binding based radioligand depletion assay relative to control
[7] = species on record: Homo sapiens; test: Covalent binding affinity to human beta2 adrenoceptor H2.64C mutant expressed in HEK293T cell membranes assessed as covalent blockage of binding site at 1 nM measured after 15 mins by [3H]CGP12177 binding based radioligand depletion assay relative to control
[8] = species on record: Mus musculus; test: Covalent binding affinity to mouse beta1 adrenoceptor I2.64C mutant expressed in HEK293T cell membranes assessed as covalent blockage of binding site at 50 nM measured after 120 mins by [3H]CGP12177 binding based radioligand depletion assay relative to control
[9] = species on record: Homo sapiens; test: as §1
[10] = species on record: Mus musculus; test: (§2) Displacement of [3H]CGP12177 from mouse beta1 adrenoceptor I2.64C mutant expressed in HEK293T cell membranes
[11] = species on record: Homo sapiens; test: Covalent binding affinity to human beta2 adrenoceptor H2.64C mutant expressed in HEK293T cell membranes assessed as covalent blockage of binding site at 1 nM measured after 90 mins by [3H]CGP12177 binding based radioligand depletion assay relative to control
[12] = species on record: Homo sapiens; test: Covalent binding affinity to human beta2 adrenoceptor H2.64C mutant expressed in HEK293T cell membranes assessed as covalent blockage of binding site at 5 nM measured after 30 mins by [3H]CGP12177 binding based radioligand depletion assay relative to control
[13] = species on record: Homo sapiens; test: Covalent binding affinity to human beta2 adrenoceptor H2.64C mutant expressed in HEK293T cell membranes assessed as covalent blockage of binding site at 5 nM measured within 15 mins by [3H]CGP12177 binding based radioligand depletion assay relative to control
[14] = species on record: Homo sapiens; test: Covalent binding affinity to human beta2 adrenoceptor H2.64C mutant expressed in HEK293T cell membranes assessed as covalent blockage of binding site at 80 nM measured after 30 mins by [3H]CGP12177 binding based radioligand depletion assay relative to control
[15] = species on record: Homo sapiens; test: Covalent binding affinity to human beta2 adrenoceptor H2.64C mutant expressed in HEK293T cell membranes assessed as covalent blockage of binding site at 1 uM measured after 120 mins by [3H]CGP12177 binding based radioligand depletion assay relative to control
[16] = species on record: Mus musculus; test: Covalent binding affinity to mouse beta1 adrenoceptor I2.64C mutant expressed in HEK293T cell membranes assessed as covalent blockage of binding site at 1 uM measured after 120 mins by [3H]CGP12177 binding based radioligand depletion assay relative to control
[17] = species on record: Homo sapiens; test: Covalent binding affinity to human beta2 adrenoceptor H2.64C mutant expressed in HEK293T cell membranes assessed as covalent blockage of binding site at 50 nM measured after 90 mins by [3H]CGP12177 binding based radioligand depletion assay relative to control
[18] = as §2
[19] = species on record: Homo sapiens; test: Covalent binding affinity to human beta2 adrenoceptor H2.64C mutant expressed in HEK293T cell membranes assessed as covalent blockage of binding site at 50 nM measured after 15 mins by [3H]CGP12177 binding based radioligand depletion assay relative to control
[20] = species on record: Homo sapiens; test: Covalent binding affinity to human beta2 adrenoceptor H2.64C mutant expressed in HEK293T cell membranes assessed as covalent blockage of binding site measured after 15 mins by [3H]CGP12177 binding based radioligand depletion assay relative to control

Beta-2 adrenergic receptor, sequence (P07550 whole entry): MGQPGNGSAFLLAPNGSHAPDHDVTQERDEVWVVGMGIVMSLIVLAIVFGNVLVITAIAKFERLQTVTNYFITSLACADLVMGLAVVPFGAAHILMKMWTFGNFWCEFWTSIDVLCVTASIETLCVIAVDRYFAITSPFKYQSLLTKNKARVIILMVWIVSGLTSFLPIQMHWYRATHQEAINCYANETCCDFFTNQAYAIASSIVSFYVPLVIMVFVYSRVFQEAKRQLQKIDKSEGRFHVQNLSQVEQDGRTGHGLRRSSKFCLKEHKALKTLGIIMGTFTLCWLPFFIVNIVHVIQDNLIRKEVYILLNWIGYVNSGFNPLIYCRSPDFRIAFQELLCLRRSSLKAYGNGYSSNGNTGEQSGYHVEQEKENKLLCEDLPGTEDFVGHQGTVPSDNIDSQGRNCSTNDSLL

Row | Structure (SMILES) | Ki [1] [nM] | Ki [2] [nM] | Ki [3] [nM] | Ratio Ki [4] | also measured
1 | COc1cc(CCNC[C@@H](O)COc2cccc3ccccc23)ccc1OCCCSSCCN | 1.1 | 33 | 1.2 | 0.033 | –
2 | COCCc1ccc(OC[C@@H](O)CNCCc2ccc(OCCCSSCCN)c(OC)c2)cc1 | 20 | 22 | 1.5 | 0.91 | Activity [5]: 100%; Activity [6]: 100%
3 | COc1cc(CCNC[C@H](O)COc2ccc(-c3nc(C(F)(F)F)cn3C)cc2)ccc1OCCSSCCN | 2200 | 150 | – | 15 | Activity [7]: 84 to 92%; Activity [8]: 64 to 76%; KiH [9]: 3.6 nM; KiL [9]: 2.5 µM; KiH [10]: 0.56 nM; KiL [10]: 280 nM; Activity [11]: < 100%
4 | COCCc1ccc(OC[C@H](O)CNCCc2ccc(OCCCSSCCN)c(OC)c2)cc1 | 320 | 220 | 26 | 1.5 | –
5 | COCCc1ccc(OC[C@H](O)CNCCc2ccc(OCCSSCCN)c(OC)c2)cc1 | 1300 | 740 | 66 | 1.8 | –
6 | COCCc1ccc(OC[C@@H](O)CNCCc2ccc(OCCSSCCN)c(OC)c2)cc1 | 57 | 27 | 3.8 | 2.1 | Activity [14]: 100%
7 | COc1cc(CCNC[C@@H](O)COc2cccc3ccccc23)ccc1OCCSSCCN | 3.4 | 29 | 0.75 | 0.12 | –
8 | Cn1cc(C(F)(F)F)nc1-c1ccc(OC[C@@H](O)CNCCOc2ccc(OCCSSCCN)c(C(N)=O)c2)cc1 | 2000 | 49 | – | 41 | KiH [9]: 36 nM; KiL [9]: 8.4 µM; KiH [10]: 0.071 nM; KiL [10]: 270 nM; Activity [15]: 79%; Activity [16]: 74%
9 | COCCc1ccc(OCC(O)CNC(C)C)cc1 (racemic) [METOPROLOL] | – | 49 | – | – | –
10 | Cn1cc(C(F)(F)F)nc1-c1ccc(OC[C@@H](O)CNCCOc2ccc(OCCCSSCCN)c(C(N)=O)c2)cc1 | 1400 | 71 | – | 20 | KiH [9]: 77 nM; KiL [9]: 3.6 µM; KiH [10]: 3.1 nM; KiL [10]: 480 nM; Activity [15]: 53 to 67%; Activity [16]: 53 to 67%
11 | COc1cc(CCNC[C@H](O)c2ccc(O)c(O)c2)ccc1OCCSSCCN | – | – | – | – | Activity [20]: 71%

The next lines start with results.

Row | Ki [1] [nM] | Ki [2] [nM] | Structure (SMILES) | Ki [3] [nM] | Ratio Ki [4] | also measured
12 | 0.16 | 0.49 | COc1cc(CCNC[C@H](O)COc2cccc3ccccc23)ccc1OCCSSCCN | 0.083 | 0.33 | Activity [12]: 100%; Activity [13]: 77 to 92%
13 | – | 1.4 | Cn1cc(C(F)(F)F)nc1-c1ccc(OCC(O)CNCCOc2ccc(O)c(C(N)=O)c2)cc1 (centres undefined) [CGP-20712A] | – | – | –
14 | 0.073 | 1.1 | COc1cc(CCNC[C@H](O)COc2cccc3ccccc23)ccc1OCCCSSCCN | 0.18 | 0.066 | Activity [12]: 100%; Activity [13]: 77 to 92%
15 | 51 | 2.6 | COc1cc(CCNC[C@H](O)COc2ccc(COCCOC(C)C)cc2)ccc1OCCSSCCN | 0.26 | 20 | Activity [8]: 64 to 76%; Activity [17]: < 100%; Ki [18]: 2 nM; Activity [19]: 84 to 92%
16 | – | 5.3 | CC(C)NCC(O)COc1ccc(COCCOC(C)C)cc1 (racemic) [BISOPROLOL] | – | – | –
